The values that follow come from US8138158B2, “Compositions and methods for therapy for diseases characterized by defective chloride transport” (Children's Hospital & Research Center at Oakland, priority 1997, dated 2012).

The test system of one test is Calu-3 airway epithelia. Put plainly: Short-circuit current (transepithelial Cl secretion) across Calu-3 airway epithelia, Examples 12-13. The class given is cell-based, human. The protocol:
(§1) Short-circuit current measurement. Calu-3 or CF15 cells were grown as monolayers, mounted in Ussing chambers and short-circuit current (ISC) was recorded as described (Illek, B. & Fischer, H. (1998) Am. J. Physiol. 275, L902-L910). At 20-50 second intervals, transepithelial voltage was clamped from zero to 2 mV and the transepithelial resistance (Rte) was calculated. A serosa-to-mucosa-directed Cl gradient was applied. Serosal Ussing chamber solution contained (in mM): 120 NaCl, 20 NaHCO3, 5 KHCO3, 1.2 NaH2PO4, 5.6 glucose, 2.5 CaCl2, 1.2 MgCl2. In mucosal Ussing chamber solutions, all Cl salts were exchanged for gluconate salts.
Vitamin C activation of CFTR-mediated Cl secretion was studied in Calu-3 cells grown as epithelial monolayers (FIG. 21A). Exposure of the apical membrane to maximal concentrations of L-ascorbic acid stimulated transepithelial Cl currents (ISC) in a sustained fashion to 96±11 μA/cm^2 (n=22). Subsequent addition of forskolin further increased ISC to 141±33 μA/cm^2 (n=9, p=0.029). On average, Cl secretion was stimulated by ascorbate to 68% of the currents elicited by forskolin. The Cl channel blocker diphenylcarboxylate (DPC, 4 mM) was added as a measure for the transcellular Cl current decreasing ISC to 30±4 μA/cm^2. When Cl secretion was first stimulated with forskolin (to 106±23 μA/cm^2, n=4) ascorbate had no significant effect on Ise (at 100 μM: ΔICl=−1.5±3.5 μA/cm^2, n=4, not different from zero, one-sample t test). Half-maximal stimulatory constant averaged 36.5±2.9 μm as determined from transepithelial dose-response experiments.
Furthermore, the response to ascorbate in Na-containing medium was blunted in the presence of phloretin, a known inhibitor of the sodium-dependent vitamin C transporters SVCT1 and SVCT2 (Tsukaguchi, H., Tokui, T., Mackenzie, B., Berger, U. V., Chen, X. Z., Wang, Y., Brubaker, R. F. & Hediger, M. A. (1999) Nature 399, 70-75). […] Molecular expression of SVCT1 and SVCT2 transcripts in Calu-3 cells was verified using RT-PCR and DNA sequencing analysis. For comparison, human ciliated tracheal epithelial cultures (hTE) and a nasal cystic fibrosis airway cell line (CF15) were included. […] The recombinantly expressed SVCT2-EGFP fusion protein was targeted exclusively to the apical membrane pole of CF15 epithelia.

Test [1] deals with CF15 monolayers homozygous for ΔF508 CFTR. Put plainly: Short-circuit current across CF15 monolayers homozygous for ΔF508 CFTR. The class given is cell-based, human. Here is the method:
Human airway cell culture. The human submucosal serous gland-like cell line Calu-3, the CF nasal epithelial cell line homozygous for ΔF508 CFTR (CF15) and human tracheal primary cultures (hTE) were cultured as described (Jefferson, D. M., Valentich, J. D., Marini, F. C., Grubman, S. A., Iannuzzi, M. C., Dorkin, H. L., Li, M., Klinger, K. W. & Welsh, M. J. (1990) Am. J. Physiol. 259, L496-L505. Sachs, L. A., Finkbeiner, W. E. & Widdicombe, J. H. (2003) In Vitro Cell Dev. Biol. Anim. 39, 56-62.). Wildtype CFTR-corrected CF15 cells were generated via adenovirus-mediated gene transfer. Growth media were nominally free of ascorbic acid (<10 μm, University Pathology Inc., Salt Lake City, Utah). For transepithelial measurements cells were grown on permeable filter inserts and used after 3 to 10 days.
as §1
The CF15 cell line was used to determine whether ascorbate-stimulated Cl currents were solely mediated by the CFTR Cl conductance. The CF15 cell line is characterized by the absence of functional CFTR in the apical plasma membrane but the presence of other non-CFTR Cl conductances (Jefferson, D. M., Valentich, J. D., Marini, F. C., Grubman, S. A., Iannuzzi, M. C., Dorkin, H. L., Li, M., Klinger, K. W. & Welsh, M. J. (1990) Am. J. Physiol. 259, L496-L505). A concentration of L-ascorbic acid that lay within the upper plateau of the dose response curve (500 μm) was applied and ascorbate-stimulated Cl currents in CF15 vs. wildtype CFTR-corrected CF15 monolayers was compared (FIG. 23A). […] The defective response to L-ascorbic acid was reversed in wildtype CFTR-corrected CF15 epithelia such that ISC responded promptly to L-ascorbic acid (ΔISC=7.5±0.5 μA/cm^2, n=6). The ascorbate-stimulated current was further activated by the cAMP agonist forskolin and total stimulated ISC averaged 12.1±1.1 μA/cm^2 (FIG. 4B). The ascorbate-stimulated Cl current reached 60±15% of the forskolin-stimulated current in CFTR-corrected CF15 monolayers, which was close to the corresponding findings in Calu-3 monolayers (68%, see FIG. 21A). […]
In this example, chloride currents stimulated by L-ascorbate or D-ascorbate were measured in CF15 versus. wildtype CFTR-corrected CF15 monolayers. A concentration of L-ascorbate (1 mM) or D-isoascorbate (300 μm) that lay within the upper plateau of the dose-response curve was applied to cells and the resulting chloride currents stimulated in CF15 versus wildtype CFTR-corrected CF15 monolayers were measured (FIG. 25 A-H). […]
The functional activation of ΔF508 CFTR was determined after correction of the underlying trafficking defect of ΔF508 CFTR using S-Nitrosoglutathione (Zaman, et al., Biochem Biophys Res Commun 284: 65-70, 2001; Snyder, et al., American Journal of Respiratory and Critical Care Medicine 165: 922-6, 2002; Andersson, et al. Biochemical and Biophysical Research Communication 297(3): 552-557, 2002.). […]

On to `O=C1O[C@H](C(O)CO)C(O)=C1O` (stereo partly drawn) [L-ascorbic acid, L-xyloascorbic acid], for which, in the test on Calu-3 airway epithelia (FIG. 21B), the “concentrations causing maximal stimulation” value is above 300 µM. Moreover, the EC50 in the test with Calu-3 airway epithelia (Homo sapiens, Calu-3, transepithelial dose-response experiments, read-out: Half-maximal stimulatory constant) was 36.5 ± 2.9 µM. In addition, the “transepithelial Cl currents (ISC) stimulated to” value with Calu-3 airway epithelia (apical exposure to maximal concentrations of L-ascorbic acid, n=22) is recorded as 96±11 μA/cm^2. For the same molecule, the “ΔICl after forskolin prestimulation” value in the test with Calu-3 airway epithelia (ascorbate at 100 μM after forskolin, n=4, not different from zero) was −1.5±3.5 μA/cm^2. In addition, the “ascorbate-stimulated Cl secretion in absence of extracellular Na” value with Calu-3 airway epithelia (no Na on the mucosal side) is “significantly reduced”. In the test on Calu-3 airway epithelia (on average), the “Cl secretion stimulated, % of the currents elicited by forskolin” value was 68%. Further, in test [1] (CF15 treated with 1 mM SNOG for 5-24 hours, L-ascorbate 1 mM, n=10), the “transepithelial chloride currents increased on average by” value was 2.1±0.1. Besides, in test [1] (uncorrected CF15, L-ascorbic acid 500 μm, n=5), the ΔISC is listed as 1.3±0.5 μA/cm^2. Further, in test [1] (untreated CF epithelia, L-ascorbate 1 mM, amiloride, n=13), the ΔIsc was determined as 1.1±0.3 μA/cm^2.
